In patent US11613546B2, “Substituted pyridotriazine compounds and uses thereof” (Gilead Sciences, Inc., priority 2021, dated 2023) one finds EC50 and CC50 data, which are given here for 14 compounds.

Where two headings read alike, the source gives them in different places.

Common to all, as to type: cell-based
The subject of one data set is HIV-1 (IIIB). Briefly: Antiviral assay in MT-4 cells. The following applies: Human immunodeficiency virus 1, IIIB, MT4, 120 h. The procedure: Antiviral Assay in MT-4 Cells
(§1) Compounds were tested in a high-throughput 384-well assay format for their ability to inhibit the replication of HIV-1 (IIIB) in MT-4 cells. Compounds were serially diluted (1:3) in DMSO on 384-well polypropylene plates and further diluted 200-fold into complete RPMI media (10% FBS, 1% P/S) using the Biotek Micro Flow and Labcyte ECHO acoustic dispenser. Each plate contained up to 8 test compounds, with negative (No Drug Control) and 5 μM AZT positive controls. MT-4 cells were pre-infected with 10 μL of either RPMI (mock-infected) or a fresh 1:250 dilution of HIV-1 IIIB concentrated virus stock. Infected and uninfected MT-4 cells were further diluted in complete RPMI media and added to each plate using a Micro Flow dispenser. After 5 days incubation in a humidified and temperature controlled incubator (37° C.), Cell Titer Glo (Promega) was added to the assay plates and chemiluminescence read using an Envision plate-reader. EC50 values were defined as the compound concentration that causes a 50% decrease in luminescence signal, and were calculated using a sigmoidal dose-response model to generate curve fits.

Data set [1] in a line: Cytotoxicity assay in MT-4 cells. The following applies: human, uninfected MT-4 cells, 5 days, Cell Titer Glo; read-out: CC50. The procedure:
as §1, with “fits. Cytotoxicity Assay in MT-4 Cells Assays were performed as above except uninfected MT-4 cells were added to each well containing test compound. In addition, 10 μM puromycin was added to the last column of each assay plate to assess a base level of cytotoxicity.” for “fits.”
(In general: ATP-based viability assays read luminescence as a measure of living cells.)

In the next data set the test system is pLai RLuc reporter virus. Kind of data set: HIV MT-4 serum shift antiviral reporter assay. The following applies: Human immunodeficiency virus 1, 72 h. The procedure:
To quantify the amount of protein binding to human serum, compounds were serially diluted (1:3) in DMSO and acoustically transferred onto 384-well assay plates via a Labcyte ECHO robot. Each plate contained up to 8 test compounds, including negative and positive controls, (DMSO, 5 μM AZT respectively). Assay plates were prepared in duplicate, and tested in either CCM (cell culture media) or HS/CCM (human serum/cell culture media). MT-4 cells were first pre-infected with pLai RLuc reporter virus for 2 h at 37° C., then further diluted in either CCM (RPMI media, 10% FBS, 1% P/S) or HS/CCM (RPMI media, 10% FBS, 50% HS, 1% P/S), and subsequently added to each plate using a Biotek Micro Flow dispenser. After a 72-h incubation in a humidified and temperature controlled incubator (37° C.), Renilla Glo (Promega) was added to all assay plates and chemiluminescence read using an Envision plate-reader. EC50 values were defined as the compound concentration that causes a 50% decrease in luminescence signal, and were calculated using a sigmoidal dose-response model to generate curve fits. To determine the amount of protein binding, EC50 fold shifts (or EC50 shifts) were calculated by dividing EC50 (HS/CCM)/EC50 (CCM).

Setting [2] is: HIV-1 IIIB infected MT-4 cells, 5 days, Cell Titer Glo, read-out: MT4 EC50.
Setting [3] is: read-out: RLUC 50% HS (nM), HS/CCM: 50% human serum, 72 h, Renilla Glo.
[4] abbreviates: read-out: RLUC CCM (nM), cell culture media (RPMI, 10% FBS), 72 h, Renilla Glo.

As a reminder, the CC50 is the concentration giving 50% cytotoxicity. As for `CO[C@H]1C[C@@H](C)N2CN(C[C@H]1OC)C(=O)c1c(O)c(=O)c(C(=O)NCc3ccc(F)cc3F)cn12` [Example C39, (1S,2R,4S,5R)—N-(2,4-difluorobenzyl)-9-hydroxy-4,5-dimethoxy-2-methyl-8,10-dioxo-3,4,5,6,8,10-hexahydro-2H-1,7-methanopyrido[1,2-b][1,2,5]triazecine-11-carboxamide], the results for the EC50 in the data set with HIV-1 (IIIB) (setting [2]), in the data set with pLai RLuc reporter virus (setting [3]) and in the data set on pLai RLuc reporter virus (setting [4]) were 3.5 nM, 4.7 nM and 0.93 nM, respectively. Further, in data set [1], the CC50 at 5 days was determined as 20300 nM.
Taken in the same sequence, the figures for `C[C@H]1CCCCN2CN1n1cc(C(=O)NCc3ccc(F)cc3F)c(=O)c(O)c1C2=O` [Example C42, (1R,2S)—N-(2,4-difluorobenzyl)-9-hydroxy-2-methyl-8,10-dioxo-3,4,5,6,8,10-hexahydro-2H-1,7-methanopyrido[1,2-b][1,2,5]triazecine-11-carboxamide] were 2.2 nM, 1880 nM, 2.47 nM and 7030 nM.
The corresponding values for `CO[C@@H]1CC[C@H](C)N2CN1n1cc(C(=O)NCc3c(F)cc(F)cc3F)c(=O)c(O)c1C2=O` [Example C47, (1R,2R,5S)-8-hydroxy-2-methoxy-5-methyl-7,9-dioxo-N-(2,4,6-trifluorobenzyl)-2,3,4,5,7,9-hexahydro-1,6-methanopyrido[1,2-b][1,2,5]triazonine-10-carboxamide] are 1.8 nM, 196 nM, 1.71 nM and 11500 nM.
Taken in the same sequence, the figures for `C[C@@H]1C=C[C@H](CF)N2CN1n1cc(C(=O)NCc3c(F)cc(F)cc3F)c(=O)c(O)c1C2=O` [Example C50, (1S,2R,5R)-5-(fluoromethyl)-8-hydroxy-2-methyl-7,9-dioxo-N-(2,4,6-trifluorobenzyl)-2,5,7,9-tetrahydro-1,6-methanopyrido[1,2-b][1,2,5]triazonine-10-carboxamide] were 0.85 nM, 850 nM, 0.37 nM and 13300 nM.
Regarding `C[C@@H]1C[C@H](F)[C@H](C)N2CN1n1cc(C(=O)NCc3ccc(F)cc3F)c(=O)c(O)c1C2=O` [Example C52, (1S,2R,4S,5S)—N-(2,4-difluorobenzyl)-4-fluoro-8-hydroxy-2,5-dimethyl-7,9-dioxo-2,3,4,5,7,9-hexahydro-1,6-methanopyrido[1,2-b][1,2,5]triazonine-10-carboxamide], the EC50 amounted to 1.5 nM in the data set on HIV-1 (IIIB) (setting [2]), 473 nM in the data set with pLai RLuc reporter virus (setting [3]) and 0.77 nM in the data set with pLai RLuc reporter virus (setting [4]). Also, the CC50 at 5 days in data set [1] worked out at 9220 nM.
The corresponding values for `C[C@@H]1C[C@@H](F)[C@H](C)N2CN1n1cc(C(=O)NCc3ccc(F)cc3F)c(=O)c(O)c1C2=O` [Example C53, (1S,2R,4R,5S)—N-(2,4-difluorobenzyl)-4-fluoro-8-hydroxy-2,5-dimethyl-7,9-dioxo-2,3,4,5,7,9-hexahydro-1,6-methanopyrido[1,2-b][1,2,5]triazonine-10-carboxamide] are 1.3 nM, 350 nM, 0.55 nM and 9010 nM.
The corresponding values for `C[C@@H]1CC(F)(F)[C@H](C)N2CN1n1cc(C(=O)NCc3ccc(F)cc3F)c(=O)c(O)c1C2=O` [Example C54, (1S,2R,5S)—N-(2,4-difluorobenzyl)-4,4-difluoro-8-hydroxy-2,5-dimethyl-7,9-dioxo-2,3,4,5,7,9-hexahydro-1,6-methanopyrido[1,2-b][1,2,5]triazonine-10-carboxamide] are 2.3 nM, 72.4 nM, 0.63 nM and 47400 nM.
With `C[C@@H]1C=C(F)[C@H](C)N2CN1n1cc(C(=O)NCc3c(F)cc(F)cc3F)c(=O)c(O)c1C2=O` [Example C55, (1S,2R,5S)-4-fluoro-8-hydroxy-2,5-dimethyl-7,9-dioxo-N-(2,4,6-trifluorobenzyl)-2,5,7,9-tetrahydro-1,6-methanopyrido[1,2-b][1,2,5]triazonine-10-carboxamide], the EC50 in the data set with HIV-1 (IIIB) (setting [2]) is 1.3 nM; with pLai RLuc reporter virus (setting [3]) it was 515 nM; with pLai RLuc reporter virus (setting [4]), 0.71 nM. For the same compound, the CC50 at 5 days in data set [1] was determined as 29500 nM.
Take `C[C@@H]1C[C@@H](C(F)F)[C@H](C)N2CN1n1cc(C(=O)NCc3c(F)cc(F)cc3F)c(=O)c(O)c1C2=O` [Example C56, (1S,2R,4R,5S)-4-(difluoromethyl)-8-hydroxy-2,5-dimethyl-7,9-dioxo-N-(2,4,6-trifluorobenzyl)-2,3,4,5,7,9-hexahydro-1,6-methanopyrido[1,2-b][1,2,5]triazonine-10-carboxamide]: the EC50 in the data set with HIV-1 (IIIB) (read-out: MT4 EC50 (nM)) is 1.1 nM; in the data set on pLai RLuc reporter virus (setting [3]) it was 24.9 nM; with pLai RLuc reporter virus (setting [4]), 0.52 nM. Further, the CC50 at 5 days in data set [1] came to 10100 nM.
Regarding `C[C@@H]1C[C@@H](CF)[C@H](C)N2CN1n1cc(C(=O)NCc3c(F)cc(F)cc3F)c(=O)c(O)c1C2=O` [Example C57, (1S,2R,4R,5S)-4-(fluoromethyl)-8-hydroxy-2,5-dimethyl-7,9-dioxo-N-(2,4,6-trifluorobenzyl)-2,3,4,5,7,9-hexahydro-1,6-methanopyrido[1,2-b][1,2,5]triazonine-10-carboxamide], the EC50 in the data set with HIV-1 (IIIB) (setting [2]) amounted to 1.2 nM; with pLai RLuc reporter virus (setting [3]), 11.6 nM; in the data set with pLai RLuc reporter virus (setting [4]), 0.27 nM. Besides, the CC50 at 5 days in data set [1] was 8930 nM.
The corresponding values for `C[C@H]1[C@@H](F)C[C@H](C)N2CN1C(=O)c1c(O)c(=O)c(C(=O)NCc3ccc(F)cc3F)cn12` [Example C58, (1S,2S,4S,5S)—N-(2,4-difluorobenzyl)-4-fluoro-8-hydroxy-2,5-dimethyl-7,9-dioxo-2,3,4,5,7,9-hexahydro-1,6-methanopyrido[1,2-b][1,2,5]triazonine-10-carboxamide] are 1.5 nM, 294 nM, 0.28 nM and 11300 nM.
Taken in the same sequence, the figures for `C[C@@H]1C=C[C@@H](C)N2CN1C(=O)c1c(O)c(=O)c(C(=O)NCc3c(F)cc(F)cc3F)cn12` [Example C64, (1S,2R,5R)-8-hydroxy-2,5-dimethyl-7,9-dioxo-N-(2,4,6-trifluorobenzyl)-2,5,7,9-tetrahydro-1,6-methanopyrido[1,2-b][1,2,5]triazonine-10-carboxamide] were 0.8 nM, 150 nM, 0.27 nM and 11400 nM.
The corresponding values for `C[C@@H]1CC[C@@H](C)N2CN1C(=O)c1c(O)c(=O)c(C(=O)NCc3c(F)cc(F)cc3F)cn12` [Example C65, (1S,2R,5R)-8-hydroxy-2,5-dimethyl-7,9-dioxo-N-(2,4,6-trifluorobenzyl)-2,3,4,5,7,9-hexahydro-1,6-methanopyrido[1,2-b][1,2,5]triazonine-10-carboxamide] are 1.8 nM, 63.8 nM, 0.44 nM and 15400 nM.
As to `C[C@@H]1CC[C@@H](C)N2CN1C(=O)c1c(O)c(=O)c(C(=O)NCc3ccc(F)cc3F)cn12` [Example C67, (1S,2R,5R)—N-(2,4-difluorobenzyl)-8-hydroxy-2,5-dimethyl-7,9-dioxo-2,3,4,5,7,9-hexahydro-1,6-methanopyrido[1,2-b][1,2,5]triazonine-10-carboxamide], the figures for the EC50 with HIV-1 (IIIB) (setting [2]), in the data set on pLai RLuc reporter virus (setting [3]) and in the data set on pLai RLuc reporter virus (setting [4]) were 1.9 nM, 35.3 nM and 0.51 nM, respectively. Besides, in data set [1], the CC50 at 5 days stood at 25500 nM.
